Laboratory results reported in publication PMC8269107, “Lipidation of Temporin-1CEb Derivatives as a Tool for Activity Improvement, Pros and Cons of the Approach” (International Journal of Molecular Sciences, 2021).
Values after ≈ are worked out from the molar mass of the structure shown. Read-outs that look alike come from different tables or passages of the source. Where a SMILES comes first, the peptide text is derived from it. [ ]: non-standard residue; d: D form. The star is where a group is joined. Lauroyl = CCCCCCCCCCCC(=O)*; Pentanoyl = CCCCC(=O)*; AEEA = NCCOCCOCC(=O)O; βAla = NCCC(=O)O

How the values were obtained:
[1] = test system: P. aeruginosa PCM 499; experiment: MIC, broth microdilution; type: cell-based, Pseudomonas aeruginosa; settings: P. aeruginosa PCM 499, 24 h
Source text: (§1) Escherichia coli (PCM 2057 = ATCC 25922), Staphylococcus aureus (PCM 2054 = ATCC 25923), Staphylococcus epidermidis (PCM 2118 = ATCC 14990), Bacillus subtilis (PCM 2224 = ATCC 9799), Bacillus cereus (PCM 482 = ATCC 10702) and Pseudomonas aeruginosa (PCM 499 = ATCC 10145) were obtained from the Polish Collection of Microorganisms. Fungi strains Candida albicans (CCM 8186 = CNTC 49/64), Candida glabrata (CCM 8270 = ATCC 90030), Candida parapsilosis (CCM 8260 = ATCC 22019) and Candida krusei (CCM 8271 = ATCC 6258) were acquired from the Czech Collection of Microorganisms. S. aureus USA300 (wild type strain), the reference strain of Klebsiella pneumoniae (ATCC 13883) and clinical isolates of Pseudomonas aeruginosa (PA1, PA2) collected from nonrelated patients admitted to the Stefan Zeromski Specialist Municipal Hospital in Krakow (Poland) were kindly provided by the research group of the Department of Microbiology, Faculty of Biochemistry, Biophysics and Biotechnology, Jagiellonian University, Krakow, Poland.
(§2) Luria-Bertani broth (LB) and Sabouraud Dextrose broth (SB) (Biocorp, Poland) were used for cultivation of bacteria and fungi strains, respectively. The antimicrobial activity of the peptides were analyzed through determination of MIC (minimal inhibitory concentration) parameters according to Clinical and Laboratory Standards (CLSI) guidelines developed for aerobic bacteria and yeasts, respectively. Mueller-Hinton broth (MHB) was used as the working medium for all bacterial strains, while in the case of fungi, RPMI-1640 (with L-glutamine, without sodium bicarbonate) growth medium buffered with MOPS (morpholinepropanesulfonic acid) and supplemented with 2% glucose was used. Inoculum was prepared from freshly grown cultures of microorganisms at their exponential phase of growth. […] Plates were then incubated for 24 h at 37 °C in the case of bacteria and at 35 °C in the case of fungi. After that time, absorbance was read at 590 nm with a Perkin Elmer plate reader. Cultures without peptide were treated as positive control, while uninoculated media were defined as negative control. All measurements were run at least in triplicate.

[2] = test system: C.albicans CCM 8186; experiment: MIC, broth microdilution; type: cell-based, Candida albicans; settings: for MIC100: C.albicans CCM 8186, 24 h
Source text: as §1, §2

[3] = test system: P. aeruginosa PA2; type: cell-based, Pseudomonas aeruginosa
Source text: as §1, §2

[4] = test system: P. aeruginosa PA1; type: cell-based, Pseudomonas aeruginosa
Source text: as §1, §2

[5] = test system: S. epidermidis PCM 2118; experiment: MIC, broth microdilution; type: cell-based, Staphylococcus epidermidis; settings: S. epidermidis PCM 2118, 24 h
Source text: as §1, §2

[6] = test system: K.pneumoniae ATCC 13883; type: cell-based, Klebsiella pneumoniae
Source text: as §1, §2

[7] = test system: C.glabrata CCM 8270; experiment: MIC, broth microdilution; type: cell-based, Candida glabrata; settings: for MIC100: C.glabrata CCM 8270, 24 h
Source text: as §1, §2

[8] = test system: C.parapsilosis CCM 8260; experiment: MIC, broth microdilution; type: cell-based, Candida parapsilosis; settings: C.parapsilosis CCM 8260, 24 h
Source text: as §1, §2

[9] = test system: S. aureus PCM 2054; experiment: MIC, broth microdilution; type: cell-based, Staphylococcus aureus; settings: S. aureus PCM 2054, standard Mueller-Hinton broth, 24 h
Source text: as §1, §2

[10] = test system: B. subtilis PCM 2224; experiment: MIC, broth microdilution; type: cell-based, Bacillus subtilis; settings: B. subtilis PCM 2224, 24 h
Source text: as §1, §2

[11] = test system: S. aureus (PCM 2054) biofilm; experiment: Biofilm inhibition assay (MTT); type: cell-based, Staphylococcus aureus; settings: S. aureus biofilm development, 24 h post-inoculation
Description: (§3) In the case of bacteria, an overnight culture of S. aureus in Tryptic Soy Broth (TSB) supplemented with 2% glucose (TSB/+G) was used to prepare inoculum for the experiments. Briefly, 5 mL of 24 h culture was centrifuged at 5000× g, washed with sterile PBS and suspended in a fresh 2 × concentrated TSB/+G. In the case of yeasts, the overnight culture of C. albicans in Sabouraud dextrose broth (SB) was used for inoculum preparation. Similar to above, 5 mL of 24 h culture was centrifuged, washed with PBS and then suspended in sterile 2 × concentrated RPMI-1640 medium (with L-glutamine, without sodium bicarbonate) supplemented with 2% glucose (RPMI-1640/+G). In both cases, the cell concentration of the inoculum was about 1 × 10^7 cells per ml.
(§4) For the determination of the inhibitory concentration that reduced biofilm development by 50% (BIC50^, expressed in µg/mL), 100 µL inoculum in 2 × concentrated RPMI-1640/+G medium (in the case of C. albicans) or 2 x concentrated TSB/+G broth (in the case of S. aureus) was transferred to each well of 96-well plates containing 100 µL of serially diluted in water tested compounds. The final concentrations of the compounds were the same as those used in MIC determination studies. The 96-well plates were then incubated for 24 h at 37 °C and 35 °C in the case of bacteria and fungi, respectively. Viability of the microorganisms in the presence of the tested compounds was analyzed by means of MTT assay.
(§5) The reduction in biofilm viability was analyzed by means of MTT assay. Briefly, 20 μL of MTT solution (5 mg/mL in PBS) was added to prewashed wells with exchanged medium (180 μL of fresh medium) wells containing bacterial/yeast biofilms. Plates were then incubated in the dark for the next 3 h at 37 °C. After that time, the medium was replaced with 6 mM HCl in isopropanol and, when the reduced MTT was fully dissolved, the plates were read at 570 nm. Activity against fully developed 24 h old biofilm was described as biofilm eradication concentration (BEC50 expressed in µg/mL), which corresponded to the concentration of the compound able to reduce 50% of biofilm viability compared with the growth control.

[12] = test system: C. albicans (CCM 8186) biofilm; experiment: Biofilm inhibition assay (MTT); type: cell-based, Candida albicans; settings: C. albicans biofilm development, 24 h post-inoculation
Description: as §3, §4, §5

[13] = test system: B. cereus PCM 482; experiment: MIC, broth microdilution; type: cell-based, Bacillus cereus; settings: B. cereus PCM 482, 24 h
Source text: as §1, §2

[14] = test system: E. coli PCM 2057; experiment: MIC, broth microdilution; type: cell-based, Escherichia coli; settings: E. coli PCM 2057, 24 h
Source text: as §1, §2

[15] = P. aeruginosa PA2 clinical isolate
[16] = P. aeruginosa PA1 clinical isolate

Row | Compound | MIC100 [1] | MIC100 [2] | MIC100 ([3]; PA2, 24 h) | MIC100 ([4]; PA1, 24 h) | MIC100 [5] | MIC100 ([6]; ATCC 13883, 24 h) | MIC100 [7] | MIC100 [8] | MIC100 [9] | MIC100 [10] | BIC50 [11] | BIC50 [12] | MIC100 [13] | MIC100 [14] | MIC100 [3, 15] | MIC100 [4, 16] | MIC100 ([6]; K.pneumoniae ATCC 13883) | fold improved activity in comparison to the parent DK5 ([2]; C. albicans, MIC) | fold improved activity in comparison to the parent DK5 ([7]; C. glabrata, MIC)
1 | CC[C@H](C)[C@H](NC(=O)COCCOCCNC(=O)[C@H](Cc1c[nH]cn1)NC(=O)CCN)C(=O)N[C@@H](CCCCN)C(=O)N[C@@H](CCCCN)C(=O)N[C@H](C(=O)N[C@@H](CC(C)C)C(=O)N[C@@H](CO)C(=O)N[C@@H](CCCCN)C(=O)N[C@H](C(=O)N[C@@H](CCCCN)C(=O)N[C@@H](CCCCN)C(=O)N[C@@H](CC(C)C)C(=O)N[C@@H](CC(C)C)C(N)=O)[C@@H](C)CC)[C@@H](C)CC [CAR-PEG-DK5] (H-[βAla]H[AEEA]IKKILSKIKKLL-NH2; N-terminus and C-terminus assumed) | 50 µg/mL (≈ 28.1 µM) | 15.6 µg/mL (≈ 8.78 µM) | 100 µg/mL (≈ 56.3 µM) | 100 µg/mL (≈ 56.3 µM) | 3.9 µg/mL (≈ 2.19 µM) | >200 µg/mL | 62.5 µg/mL (≈ 35.2 µM) | 31.3 µg/mL (≈ 17.6 µM) | >50 µg/mL | 3.9 µg/mL (≈ 2.19 µM) | >50 µg/mL | 50 µg/mL | >50 µg/mL | >50 µg/mL | – | – | – | – | –
2 | CCCCC(=O)N[C@H](C(=O)N[C@@H](CCCCN)C(=O)N[C@@H](CCCCN)C(=O)N[C@H](C(=O)N[C@@H](CC(C)C)C(=O)N[C@@H](CO)C(=O)N[C@@H](CCCCN)C(=O)N[C@H](C(=O)N[C@@H](CCCCN)C(=O)N[C@@H](CCCCN)C(=O)N[C@@H](CC(C)C)C(=O)N[C@@H](CC(C)C)C(N)=O)[C@@H](C)CC)[C@@H](C)CC)[C@@H](C)CC [Compound C5-DK5] (Pentanoyl-IKKILSKIKKLL-NH2) | 25 µg/mL (≈ 16.6 µM) | 6.25 µg/mL (≈ 4.14 µM) | – | – | 0.78 µg/mL (≈ 0.517 µM) | – | 6.25 µg/mL (≈ 4.14 µM) | 3.13 µg/mL (≈ 2.08 µM) | 12.5 µg/mL (≈ 8.29 µM) | 0.78 µg/mL (≈ 0.517 µM) | 6.25 µg/mL | 10 µg/mL | 12.5 µg/mL (≈ 8.29 µM) | 3.13 µg/mL (≈ 2.08 µM) | 25 µg/mL (≈ 16.6 µM) | 25 µg/mL (≈ 16.6 µM) | 50 µg/mL (≈ 33.2 µM) | – | –
3 | CCCCCCCCCCCC(=O)N[C@H](C(=O)N[C@@H](CCCCN)C(=O)N[C@@H](CCCCN)C(=O)N[C@H](C(=O)N[C@@H](CC(C)C)C(=O)N[C@@H](CO)C(=O)N[C@@H](CCCCN)C(=O)N[C@H](C(=O)N[C@@H](CCCCN)C(=O)N[C@@H](CCCCN)C(=O)N[C@@H](CC(C)C)C(=O)N[C@@H](CC(C)C)C(N)=O)[C@@H](C)CC)[C@@H](C)CC)[C@@H](C)CC [Compound C12-DK5] (Lauroyl-IKKILSKIKKLL-NH2) | 12.5 µg/mL (≈ 7.78 µM) | 3.13 µg/mL (≈ 1.95 µM) | – | – | 0.78 µg/mL (≈ 0.486 µM) | – | 3.13 µg/mL (≈ 1.95 µM) | 3.13 µg/mL (≈ 1.95 µM) | 6.25 µg/mL (≈ 3.89 µM) | 0.78 µg/mL (≈ 0.486 µM) | 6.25 µg/mL | 6.25 µg/mL | 12.5 µg/mL (≈ 7.78 µM) | 12.5 µg/mL (≈ 7.78 µM) | 50 µg/mL (≈ 31.1 µM) | 50 µg/mL (≈ 31.1 µM) | 25 µg/mL (≈ 15.6 µM) | about 10 fold | ~20 fold
